According to patent publication US10689377B2 (Mirati Therapeutics, Inc., priority 2017, dated 2020):

Target: KRas G12C (Homo sapiens, UniProt P01116, G12C)
Assay: Cellular inhibition of KRas G12C measured by Phospho-ERK in NCI-H358 cells
Format: cell-based
Conditions: pERK(Thr202/Tyr204) normalized with GAPDH, NCI-H358 cells, 3 hours; read-out: IC50
Summary of the method: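 NCI-H358 cells treated 3 h with compound (0.5% DMSO final), then fixed and methanol-permeabilised. In-cell immunofluorescence measured pERK(Thr202/Tyr204) normalised to GAPDH as percent of DMSO control. IC50 from a 4-parameter dose-response fit.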

Chain of KRas G12C (P01116 1-188 isoform P01116-2 G12C): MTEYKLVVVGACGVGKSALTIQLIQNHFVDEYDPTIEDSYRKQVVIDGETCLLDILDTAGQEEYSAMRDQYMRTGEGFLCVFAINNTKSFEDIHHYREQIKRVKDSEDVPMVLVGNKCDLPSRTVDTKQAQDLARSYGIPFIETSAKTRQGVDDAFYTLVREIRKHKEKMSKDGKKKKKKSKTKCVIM

IC50	SMILES
> 1000 nM	C=CC(=O)N1CCN(c2nc(NCCCN3CCOCC3)nc3c2CCN(c2cc(O)cc4ccccc24)C3)CC1 [Example 133, 1-[4-[7-(3-hydroxy-1-naphthyl)-2-(3-morpholinopropylamino)-6,8-dihydro-5H-pyrido[3,4-d]pyrimidin-4-yl]piperazin-1-yl]prop-2-en-1-one]
> 1000 nM	C=CC(=O)N1C[C@H]2CC[C@@H](C1)N2c1nc(OC(C)CN(C)C)nc2c1CCN(c1cc(O)cc3ccccc13)C2 (stereo partly drawn) [Example 46, 1-((1R,5S)-8-(2-((1-(dimethylamino)propan-2-yl)oxy)-7-(3-hydroxynaphthalen-1-yl)-5,6,7,8-tetrahydropyrido[3,4-d]pyrimidin-4-yl)-3,8-diazabicyclo[3.2.1]octan-3-yl)prop-2-en-1-one]
0.1 to 1000 nM	C=CC(=O)N1CCN(c2nc(OC[C@@]3(C)CCCN3C)nc3c2CCN(c2cccc(F)c2C(F)(F)F)C3)CC1CC#N (stereo partly drawn) [Example 418, 2-(1-acryloyl-4-(2-(((R)-1,2-dimethylpyrrolidin-2-yl)methoxy)-7-(3-fluoro-2-(trifluoromethyl)phenyl)-5,6,7,8-tetrahydropyrido[3,4-d]pyrimidin-4-yl)piperazin-2-yl)acetonitrile]
0.1 to 1000 nM	C=CC(=O)N1CCN(c2nc(OC[C@@H]3CCCN3CCOC)nc3c2CCN(c2cccc4ccccc24)C3)CC1CC#N (stereo partly drawn) [Example 266, 2-(1-acryloyl-4-(2-(((S)-1-(2-methoxyethyl)pyrrolidin-2-yl)methoxy)-7-(naphthalen-1-yl)-5,6,7,8-tetrahydropyrido[3,4-d]pyrimidin-4-yl)piperazin-2-yl)acetonitrile]
> 1000 nM	C=CC(=O)N1CCN(c2nc(OCCCN3CCC(OC)C3)nc3c2CCN(c2cc(O)cc4ccccc24)C3)CC1 (stereo not shown) [Example 137, 1-[4-[7-(3-hydroxy-1-naphthyl)-2-[3-(3-methoxypyrrolidin-1-yl)propoxy]-6,8-dihydro-5H-pyrido[3,4-d]pyrimidin-4-yl]piperazin-1-yl]prop-2-en-1-one]
0.1 to 1000 nM	C=CC(=O)N1CCN(c2nc(N3CCCC(N(C)C)C3)nc3c2CCN(c2cccc4ccccc24)C3)C[C@@H]1CC#N (stereo partly drawn) [Example 405, 2-((2S)-1-acryloyl-4-(2-(3-(dimethylamino)piperidin-1-yl)-7-(naphthalen-1-yl)-5,6,7,8-tetrahydropyrido[3,4-d]pyrimidin-4-yl)piperazin-2-yl)acetonitrile]
0.1 to 1000 nM	C=CC(=O)N1CCN(c2nc(OC[C@H]3C[C@H](F)CN3C)nc3c2CCN(c2cccc(F)c2C(F)(F)F)C3)CC1CC#N (stereo partly drawn) [Example 417, 2-(1-acryloyl-4-(2-(((2R,4S)-4-fluoro-1-methylpyrrolidin-2-yl)methoxy)-7-(3-fluoro-2-(trifluoromethyl)phenyl)-5,6,7,8-tetrahydropyrido[3,4-d]pyrimidin-4-yl)piperazin-2-yl)acetonitrile]
0.1 to 1000 nM	C=CC(=O)N1CCN(c2nc(OC[C@@H]3CCCN3C)nc3c2CCN(c2cccc4cccc(Br)c24)C3)C[C@@H]1CC#N [Example 464, 2-((S)-1-acryloyl-4-(7-(8-bromonaphthalen-1-yl)-2-(((S)-1-methylpyrrolidin-2-yl)methoxy)-5,6,7,8-tetrahydropyrido[3,4-d]pyrimidin-4-yl)piperazin-2-yl)acetonitrile]
0.1 to 1000 nM	C=CC(=O)N1CCN(c2nc(O[C@H](C)CN(C)C)nc3c2CCN(c2c(C)ccc4[nH]ncc24)C3)CC1CC#N (stereo partly drawn) [Example 152, 2-[4-[2-[(1R)-2-(dimethylamino)-1-methyl-ethoxy]-7-(5-methyl-1H-indazol-4-yl)-6,8-dihydro-5H-pyrido[3,4-d]pyrimidin-4-yl]-1-prop-2-enoyl-piperazin-2-yl]acetonitrile]
0.1 to 1000 nM	C=CC(=O)N1CCN(c2nc(OC[C@H]3CCCN3C)nc3c2CCN(c2c(C(F)(F)F)ccc4[nH]ncc24)C3)CC1CC#N (stereo partly drawn) [Example 243, 2-[4-[2-[[(2R)-1-methylpyrrolidin-2-yl]methoxy]-7-[5-(trifluoromethyl)-1H-indazol-4-yl]-6,8-dihydro-5H-pyrido[3,4-d]pyrimidin-4-yl]-1-prop-2-enoyl-piperazin-2-yl]acetonitrile]
0.1 to 1000 nM	C=CC(=O)N1CCN(c2nc(OCCCN3CCOCC3)nc3c2CCN(c2cc(O)ccc2OC(F)(F)F)C3)CC1 [Example 90, 1-(4-(7-(5-hydroxy-2-(trifluoromethoxy)phenyl)-2-(3-morpholinopropoxy)-5,6,7,8-tetrahydropyrido[3,4-d]pyrimidin-4-yl)piperazin-1-yl)prop-2-en-1-one]
0.1 to 1000 nM	C=CC(=O)N1CCN(c2nc(OCc3ncc[nH]3)nc3c2CCN(c2cccc4ccccc24)C3)C[C@@H]1CC#N [Example 351, 2-[(2S)-4-[2-(1H-imidazol-2-ylmethoxy)-7-(1-naphthyl)-6,8-dihydro-5H-pyrido[3,4-d]pyrimidin-4-yl]-1-prop-2-enoyl-piperazin-2-yl]acetonitrile]
> 1000 nM	C=CC(=O)N1CCN(c2nc(O[C@H](C)CN(C)C)nc3c2CCN(c2cc(O)c(F)c4ccccc24)C3)CC1 [Example 124, (R)-1-(4-(2-((1-(dimethylamino)propan-2-yl)oxy)-7-(4-fluoro-3-hydroxynaphthalen-1-yl)-5,6,7,8-tetrahydropyrido[3,4-d]pyrimidin-4-yl)piperazin-1-yl)prop-2-en-1-one]
> 1000 nM	C=CC(=O)N1CCN(c2nc(OCCCN(C)C)nc3c2CCN(c2cc(O)cc4ccccc24)C3)CC1 [Example 10, 1-(4-(2-(3-(dimethylamino)propoxy)-7-(3-hydroxynaphthalen-1-yl)-5,6,7,8-tetrahydropyrido[3,4-d]pyrimidin-4-yl)piperazin-1-yl)prop-2-en-1-one]
0.1 to 1000 nM	C=C(F)C(=O)N1CCN(c2nc(OC[C@@H]3CCCN3C)nc3c2CCN(c2cncc4ccc(C)cc24)C3)C[C@@H]1CC#N [Example 607, 2-((S)-1-(2-fluoroacryloyl)-4-(7-(6-methylisoquinolin-4-yl)-2-(((S)-1-methylpyrrolidin-2-yl)methoxy)-5,6,7,8-tetrahydropyrido[3,4-d]pyrimidin-4-yl)piperazin-2-yl)acetonitrile]
> 1000 nM	C[C@H](CN(C)C)Oc1nc2c(c(N3CCN(C(=O)/C=C/CN(C)C)CC3)n1)CCN(c1cc(O)cc3ccccc13)C2 [Example 122, (R,E)-4-(dimethylamino)-1-(4-(2-((1-(dimethylamino)propan-2-yl)oxy)-7-(3-hydroxynaphthalen-1-yl)-5,6,7,8-tetrahydropyrido[3,4-d]pyrimidin-4-yl)piperazin-1-yl)but-2-en-1-one bis-trifluoroacetate]
0.1 to 1000 nM	C=CC(=O)N1CCN(c2nc(OCCCN3CCCC3)nc3c2CCN(c2cc(O)cc4ccccc24)C3)CC1 [Example 39, 1-(4-(7-(3-hydroxynaphthalen-1-yl)-2-(3-(pyrrolidin-1-yl)propoxy)-5,6,7,8-tetrahydropyrido[3,4-d]pyrimidin-4-yl)piperazin-1-yl)prop-2-en-1-one]
0.1 to 1000 nM	C=CC(=O)N1CCN(c2nc(OC[C@@H]3C[C@@H](OC)CN3C)nc3c2CCN(c2cccc(Cl)c2C(F)(F)F)C3)C[C@@H]1CC#N [Example 332, 2-[(2S)-4-[7-[3-chloro-2-(trifluoromethyl)phenyl]-2-[[(2S,4R)-4-methoxy-1-methyl-pyrrolidin-2-yl]methoxy]-6,8-dihydro-5H-pyrido[3,4-d]pyrimidin-4-yl]-1-prop-2-enoyl-piperazin-2-yl]acetonitrile]
> 1000 nM	C=CC(=O)N1CCN(c2nc(OC(CO)CN3CCOCC3)nc3c2CCN(c2cc(O)cc4ccccc24)C3)CC1 (stereo not shown) [Example 217, 1-(4-(2-((1-hydroxy-3-morpholinopropan-2-yl)oxy)-7-(3-hydroxynaphthalen-1-yl)-5,6,7,8-tetrahydropyrido[3,4-d]pyrimidin-4-yl)piperazin-1-yl)prop-2-en-1-one]
0.1 to 1000 nM	C=CC(=O)N1CCN(c2nc(OC[C@@H]3CCCN3C)nc3c2CCN(c2cccc4ccc(Cl)cc24)C3)CC1CC#N (stereo partly drawn) [Example 253, 2-(1-acryloyl-4-(7-(7-chloronaphthalen-1-yl)-2-(((S)-1-methylpyrrolidin-2-yl)methoxy)-5,6,7,8-tetrahydropyrido[3,4-d]pyrimidin-4-yl)piperazin-2-yl)acetonitrile]
0.1 to 1000 nM	C=CC(=O)N1CCN(c2nc(OC[C@@H]3CCCN3C)nc3c2CCN(c2cccc(Cl)c2Cl)C3)C[C@@H]1CC#N [Example 421, 2-((S)-1-acryloyl-4-(7-(2,3-dichlorophenyl)-2-(((S)-1-methylpyrrolidin-2-yl)methoxy)-5,6,7,8-tetrahydropyrido[3,4-d]pyrimidin-4-yl)piperazin-2-yl)acetonitrile]
0.1 to 1000 nM	C=CC(=O)N1CCN(c2nc(OC[C@@H]3CCCN3C)nc3c2CCN(c2cccc4cccc(C(F)(F)F)c24)C3)C[C@@H]1CC#N [Example 434, 2-((S)-1-acryloyl-4-(2-(((S)-1-methylpyrrolidin-2-yl)methoxy)-7-(8-(trifluoromethyl)naphthalen-1-yl)-5,6,7,8-tetrahydropyrido[3,4-d]pyrimidin-4-yl)piperazin-2-yl)acetonitrile]
0.1 to 1000 nM	C=CC(=O)N1CCN(c2nc(OC[C@@H]3CN(C)CCO3)nc3c2CCN(c2cccc4ccccc24)C3)CC1CC#N (stereo partly drawn) [Example 444, 2-(1-acryloyl-4-(2-(((S)-4-methylmorpholin-2-yl)methoxy)-7-(naphthalen-1-yl)-5,6,7,8-tetrahydropyrido[3,4-d]pyrimidin-4-yl)piperazin-2-yl)acetonitrile]
0.1 to 1000 nM	C=CC(=O)N1CCN(c2nc(OCCN(C)C)nc3c2CCN(c2ccccc2C(F)(F)F)C3)CC1CC#N (stereo not shown) [Example 296, 2-[4-[2-[2-(dimethylamino)ethoxy]-7-[2-(trifluoromethyl)phenyl]-6,8-dihydro-5H-pyrido[3,4-d]pyrimidin-4-yl]-1-prop-2-enoyl-piperazin-2-yl]acetonitrile]
0.1 to 1000 nM	C=CC(=O)N1CCN(c2nc(OCCN(C)C)nc3c2CCN(c2cc(O)cc4ccccc24)C3)C[C@@H]1CC#N [Example 176, 2-[(2S)-4-[2-[2-(dimethylamino)ethoxy]-7-(3-hydroxy-1-naphthyl)-6,8-dihydro-5H-pyrido[3,4-d]pyrimidin-4-yl]-1-prop-2-enoyl-piperazin-2-yl] acetonitrile]
